Data from patent publication US9212210B2, “Akt activity specifically inhibiting polypeptide” (Japan Science and Technology Agency, priority 2003, dated 2015).

Assays:
AKT kinase (unactivated) = biological target: T1, AKT kinase (unactivated) (Homo sapiens, UniProt P31749); assay: Lipid-protein pull down assay with PIP Beads (PI (3,4,5) P3); assay type: binding
T1 construct: purchased Upstate Biotechnology #14-279
Protocol: Lipid-protein pull down assay was performed for 10/24 peptide of TCL1.
Lipid-protein pull down assay was performed by using PIP Beads (PI (3,4,5) P3 Echelon Bioscience Incorporated). 10/24 NH2-AVTDHPDRLWAWEKF-COOH (SEQ ID NO: 1), and βC NH2-EKQHAWLPLTIE-COOH (SEQ ID NO: 22) as a control, were used. After treatment for 2 hours at 4° C. by using 50 ng of AKT kinase (unactivated, Upstate Biotechnology, #14-279), 25 μl of PIP Beads (PI (3,4,5) P3 Echelon Bioscience Incorporated) was added, then washed with fluid containing (10 mM Hepes, pH7.4, 0.25% NP-40, 140 mM NaCl), and western blotting was performed by using Akt antibody (Cell Signaling) (FIG. 8). […] Thus, this is considered to be the inhibition mechanism for Akt activation.

Recombinant Akt protein = assay: In vitro Akt kinase assay with GSK as substrate; assay type: biochemical; details: 200 μM peptide, reacted 2 hours, phosphorylation 4 minutes at 30° C., western blotting
Protocol: With the use of the GSK as substrate Akt kinase assay was performed, and inhibition test for Akt activation with 10/24 peptide was performed.
In vitro Akt kinase assay was performed by using kit (Cell Signaling, #9840). Recombinant Akt protein extracted from mammalian cells was mixed with 200 μM concentrations of peptide, and reacted for 2 hours. Phosphorylation was performed for 4 minutes at 30° C. After analyzing the reaction mixture on SDS gels, GSK phosphorylation was determined by western blotting.

[1] = system: AKT overexpressed in 293 cells; assay: Inhibition of activation and membrane translocation of AKT in 293 cells (confocal microscope); assay type: cell-based, human; details: PDGF-AB 10 minutes, compared with control peptides
Protocol: Inhibition effect for the activation and membrane translocation of AKT of 10/24 peptide were tested with the use of 293 cells (ATCC).
[…] of AKT was overexpressed in 293 cells (ATCC) with the use of FuGENE6 (Roche Diagnostics). Sixteen hours later the serum was eliminated, and the cells were stimulated with PDGF-AB (Sigma, #3226) for 10 minutes. The cells were fixed with 4% paraformaldehyde, stained with FITC-conjugated anti-HA antibody (12CA5, MBL) or phospho-Ser 473 antibody (587-F11, Cell Signaling), and observed under the confocal microscope (Nikon).
As shown in the FIG. 10, in the 10/24 treated cells (g-i), the inhibition of the membrane translocation and activation of AKT was identified compared with the control peptides (a-f) (around the cells glowed green or yellow as shown in d or f, while this effect was inhibited in the 10/24 peptide as shown in […] or i. See the figure). That is, from the results of the experiment, it was identified that the 10/24 peptide inhibits the activation at the same time as the translocating of AKT to the membrane in cells. AKT essentially translocates to the cell surface where it is activated, but in the 10/24 peptide treated cells, it was identified that the translocation to membrane and activation of AKT was inhibited.

T1 sequence (P31749 whole entry): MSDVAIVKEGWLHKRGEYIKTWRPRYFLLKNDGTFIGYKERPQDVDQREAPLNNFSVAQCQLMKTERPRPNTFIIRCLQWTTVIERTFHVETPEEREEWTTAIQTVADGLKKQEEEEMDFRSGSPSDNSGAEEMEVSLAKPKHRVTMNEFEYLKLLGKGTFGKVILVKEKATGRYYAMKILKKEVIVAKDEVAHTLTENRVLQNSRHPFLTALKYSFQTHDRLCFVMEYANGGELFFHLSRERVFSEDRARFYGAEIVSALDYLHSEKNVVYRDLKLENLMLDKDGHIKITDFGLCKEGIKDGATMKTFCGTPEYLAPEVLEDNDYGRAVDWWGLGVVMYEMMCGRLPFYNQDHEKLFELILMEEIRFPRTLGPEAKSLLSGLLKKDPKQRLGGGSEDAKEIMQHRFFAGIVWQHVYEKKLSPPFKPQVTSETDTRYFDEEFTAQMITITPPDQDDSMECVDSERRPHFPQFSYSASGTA

Q: What does the source list for “NH2-AVTDHPDRLWAWEKF-COOH (H-AVTDHPDRLWAWEKF-OH; listed as Homo sapiens) [10/24 peptide, amino acid residue 10-24 of human TCL1]”?
A: mode of inhibition of the binding of Phosphoinositide (PI (3,4,5) P3) to Akt kinase (AKT kinase (unactivated)): competitively inhibits; binding of PIP Beads (PI (3,4,5) P3) to AKT (AKT kinase (unactivated); 1-400 μM peptide, 50 ng AKT kinase, 2 hours at 4° C., western blotting): inhibited in a dose-dependent manner; phosphorylation potency of Akt for GSK peptide (Akt kinase activity) (Recombinant Akt protein): effectively inhibited; membrane translocation of AKT ([1]; anti-HA staining): inhibited; activation of AKT (phospho-Ser 473 staining) [1]: inhibited
